Results: US10577349B2 (Sanford Burnham Prebys Medical Discovery Institute, priority 2015, dated 2020)

Legend:
[1] = biological target: EmCV Cap-dependent translation; test: In vitro translation assay, FF-EmCV-Ren construct, cap-dependent (FF luciferase); type: biochemical, rabbit reticulocyte lysates
How it was run: (§1)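 Rabbit reticulocyte lysate with -Met/-Leu translation mixes pre-incubated with compound 1 h at room temperature, then 0.1 μg bicistronic RNA added and translated 2 h at 30° C. Dual-Glo read-out: FF signal reports cap-dependent, Ren signal IRES-driven translation. Counter assay adds compound after translation to flag luciferase interference.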

[2] = biological target: HCV cap-dependent translation; test: In vitro translation assay, FF-HCV-Ren construct, cap-dependent (FF luciferase); type: biochemical, rabbit reticulocyte lysates
How it was run: as §1

[3] = system: WM1346 (NRAS mutant) cell line; test: Reverse phase protein array analysis (RPPA), WM1346; type: cell-based, human; details: WM1346, 1 μM, 24 h
Protocol: (§2) UACC903 and WM1346 cells were treated with DMSO (controls) or 1 μM Compound 38 for 24 h in triplicate. Cells were lysed with lysis buffer (1% Triton X-100, 50 mM HEPES, pH 7.4, 150 mM NaCl, 1.5 mM MgCl2, 1 mM EGTA, 100 mM NaF, 10 mM Na pyrophosphate, 1 mM Na3VO4, 10% glycerol, with freshly added protease and phosphatase inhibitors) and centrifuged at 13,000 g for 20 minutes. Denatured protein lysates containing the same amount of protein were then subjected to RPPA analysis at the RPPA Core Facility, Md. Anderson Cancer Center, as previously described (Tibes. R., et al. Reverse phase protein array: validation of a novel proteomic technology and utility for analysis of primary leukemia specimens and hematopoietic stem cells. Molecular cancer therapeutics 5, 2512-2521 (2006)),
(§3) A reverse phase protein array (RPPA) analysis of BRAF- and NRAS-mutant melanomas was performed to identify protein networks affected by Compound 38 (Table 4).

[4] = system: UACC903 (BRAF mutant) cell line; test: Reverse phase protein array analysis (RPPA), UACC903; type: cell-based, human; details: UACC903, 1 μM, 24 h
Protocol: as §2, §3

[5] = system: UACC903 and WM1346 cell lines; test: Reverse phase protein array analysis (RPPA), average of both cell lines; type: cell-based, human
Protocol: as §2, §3

For `O=C(/C=C/c1cncc(F)c1)c1c(-c2ccccc2)c2cc(Cl)ccc2[nH]c1=O` [Compound 38, 6-Chloro-3-[3-(5-fluoro-pyridin-3-yl)-acryloyl]-4-phenyl-1H-quinolin-2-one], the IC50 [1] was 2 to 10 µM, the IC50 [2] was 2 to 10 µM and the “Ratio [Compound 38/DMSO] A-Raf” value [3] was 0.90. The “Ratio [Compound 38/DMSO] AR” value [3] was 0.72, the “Ratio [Compound 38/DMSO] ATM” value [3] was 0.82 and the “Ratio [Compound 38/DMSO] ATR” value [3] was 0.76. For the same compound, the “Ratio [Compound 38/DMSO] BRCA2” value [3] was 0.90, the “Ratio [Compound 38/DMSO] C-Raf” value [3] was 0.93 and the “Ratio [Compound 38/DMSO] Chk1” value [3] was 0.94. The “Ratio [Compound 38/DMSO] Ets-1” value [3] was 0.91, the “Ratio [Compound 38/DMSO] GCN5L2” value [3] was 0.86 and the “Ratio [Compound 38/DMSO] INPP4b” value [3] was 0.88. For the same compound, the “Ratio [Compound 38/DMSO] MSH6” value [3] was 0.78, the “Ratio [Compound 38/DMSO] PI3K-p85” value [3] was 0.96 and the “Ratio [Compound 38/DMSO] PI3K-p110-alpha” value [3] was 0.95. The “Ratio [Compound 38/DMSO] Rad51” value [3] was 0.78, the “Ratio [Compound 38/DMSO] Raptor” value [3] was 0.87 and the “Ratio [Compound 38/DMSO] Rictor_pT1135” value [3] was 0.91. For the same compound, the “Ratio [Compound 38/DMSO] S6_pS235_S236” value [3] was 0.70, the “Ratio [Compound 38/DMSO] S6_pS240_S244” value [3] was 0.65 and the “Ratio [Compound 38/DMSO] Stat5a” value [3] was 0.67. For the same compound, the “Ratio [Compound 38/DMSO] Tuberin” value [3] was 0.68, the “Ratio [Compound 38/DMSO] YB1” value [3] was 0.69 and the “Ratio [Compound 38/DMSO] c-Kit” value [3] was 0.94. For the same compound, the “Ratio [Compound 38/DMSO] c-Myc” value [3] was 0.80, the “Ratio [Compound 38/DMSO] mTOR” value [3] was 0.71 and the “Ratio [Compound 38/DMSO] mTOR_pS2448” value [3] was 0.76. The “Ratio [Compound 38/DMSO] p70-S6K_pT389” value [3] was 0.81, the “Ratio [Compound 38/DMSO] A-Raf” value [4] was 0.91 and the “Ratio [Compound 38/DMSO] AR” value [4] was 0.92. The “Ratio [Compound 38/DMSO] ATM” value [4] was 0.79, the “Ratio [Compound 38/DMSO] ATR” value [4] was 0.84 and the “Ratio [Compound 38/DMSO] BRCA2” value [4] was 0.96. For the same compound, the “Ratio [Compound 38/DMSO] C-Raf” value [4] was 0.92, the “Ratio [Compound 38/DMSO] Chk1” value [4] was 0.89 and the “Ratio [Compound 38/DMSO] Ets-1” value [4] was 0.92. The “Ratio [Compound 38/DMSO] GCN5L2” value [4] was 0.88, the “Ratio [Compound 38/DMSO] INPP4b” value [4] was 0.93 and the “Ratio [Compound 38/DMSO] MSH6” value [4] was 0.76. The “Ratio [Compound 38/DMSO] PI3K-p85” value [4] was 0.93, the “Ratio [Compound 38/DMSO] PI3K-p110-alpha” value [4] was 0.94 and the “Ratio [Compound 38/DMSO] Rad51” value [4] was 0.93. The “Ratio [Compound 38/DMSO] Raptor” value [4] was 0.86, the “Ratio [Compound 38/DMSO] Rictor_pT1135” value [4] was 0.84 and the “Ratio [Compound 38/DMSO] S6_pS235_S236” value [4] was 0.63. For the same compound, the “Ratio [Compound 38/DMSO] S6_pS240_S244” value [4] was 0.61, the “Ratio [Compound 38/DMSO] Stat5a” value [4] was 0.85 and the “Ratio [Compound 38/DMSO] Tuberin” value [4] was 0.62. The “Ratio [Compound 38/DMSO] YB1” value [4] was 0.77, the “Ratio [Compound 38/DMSO] c-Kit” value [4] was 0.86 and the “Ratio [Compound 38/DMSO] c-Myc” value [4] was 0.72. The “Ratio [Compound 38/DMSO] mTOR” value [4] was 0.90, the “Ratio [Compound 38/DMSO] mTOR_pS2448” value [4] was 0.72 and the “Ratio [Compound 38/DMSO] p70-S6K_pT389” value [4] was 0.82. The “Ratio [Compound 38/DMSO] A-Raf, Average” value [5] was 0.9, the “Ratio [Compound 38/DMSO] AR, Average” value [5] was 0.82 and the “Ratio [Compound 38/DMSO] ATM, Average” value [5] was 0.81. The “Ratio [Compound 38/DMSO] ATR, Average” value [5] was 0.80, the “Ratio [Compound 38/DMSO] BRCA2, Average” value [5] was 0.93 and the “Ratio [Compound 38/DMSO] C-Raf, Average” value [5] was 0.92. The “Ratio [Compound 38/DMSO] Chk1, Average” value [5] was 0.91, the “Ratio [Compound 38/DMSO] Ets-1, Average” value [5] was 0.92 and the “Ratio [Compound 38/DMSO] GCN5L2, Average” value [5] was 0.87. The “Ratio [Compound 38/DMSO] INPP4b, Average” value [5] was 0.9, the “Ratio [Compound 38/DMSO] MSH6, Average” value [5] was 0.77 and the “Ratio [Compound 38/DMSO] PI3K-p85, Average” value [5] was 0.95. For the same compound, the “Ratio [Compound 38/DMSO] PI3K-p110-alpha, Average” value [5] was 0.95, the “Ratio [Compound 38/DMSO] Rad51, Average” value [5] was 0.85 and the “Ratio [Compound 38/DMSO] Raptor, Average” value [5] was 0.86. The “Ratio [Compound 38/DMSO] Rictor_pT1135, Average” value [5] was 0.87, the “Ratio [Compound 38/DMSO] S6_pS235_S236, Average” value [5] was 0.67 and the “Ratio [Compound 38/DMSO] S6_pS240_S244, Average” value [5] was 0.63. For the same compound, the “Ratio [Compound 38/DMSO] Stat5a, Average” value [5] was 0.76, the “Ratio [Compound 38/DMSO] Tuberin, Average” value [5] was 0.65 and the “Ratio [Compound 38/DMSO] YB1, Average” value [5] was 0.73. For the same compound, the “Ratio [Compound 38/DMSO] c-Kit, Average” value [5] was 0.90, the “Ratio [Compound 38/DMSO] c-Myc, Average” value [5] was 0.76 and the “Ratio [Compound 38/DMSO] mTOR, Average” value [5] was 0.80. The “Ratio [Compound 38/DMSO] mTOR_pS2448, Average” value [5] was 0.74 and the “Ratio [Compound 38/DMSO] p70-S6K_pT389, Average” value [5] was 0.81.
